This is an account of results in ChEMBL document CHEMBL1201862, “PubChem BioAssay data set” (2004).

Experiment [1] is described as follows: Counterscreen for IDE inhibitors: Luminescence-based cell-based high throughput dose response assay to identify compounds that are cytotoxic to HEK cells. [Related pubchem assays: 434962 (Primary screen (IDE inhibitors in singlicate)), 449730 (Counterscreen (Cytotoxicity in triplicate)), 435028 (Confirmation (IDE inhibitors in triplicate)) …. The experiment is classed as functional. To be noted: HEK293.

Experiment [2] has as its target DNA dC->dU-editing enzyme APOBEC-3A (Homo sapiens, UniProt P31941). The experiment can be described thus: Dose Response confirmation of small molecule APOBEC3A DNA Deaminase Inhibitors via a fluorescence-based single-stranded DNA deaminase assay. [Related pubchem assays (depositor defined):AID493011, AID493024]. The experiment is classed as functional.
In experiment [3] the target is DNA dC->dU-editing enzyme APOBEC-3G (Homo sapiens, UniProt Q9HC16). The experiment is classed as functional.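 Also: Dose-response counterscreen measuring inhibition of APOBEC3G DNA deaminase activity, run while confirming APOBEC3A inhibitors.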
The target in the next experiment is T1, Insulin-degrading enzyme (Homo sapiens, UniProt P14735).
T1 sequence (P14735 whole entry): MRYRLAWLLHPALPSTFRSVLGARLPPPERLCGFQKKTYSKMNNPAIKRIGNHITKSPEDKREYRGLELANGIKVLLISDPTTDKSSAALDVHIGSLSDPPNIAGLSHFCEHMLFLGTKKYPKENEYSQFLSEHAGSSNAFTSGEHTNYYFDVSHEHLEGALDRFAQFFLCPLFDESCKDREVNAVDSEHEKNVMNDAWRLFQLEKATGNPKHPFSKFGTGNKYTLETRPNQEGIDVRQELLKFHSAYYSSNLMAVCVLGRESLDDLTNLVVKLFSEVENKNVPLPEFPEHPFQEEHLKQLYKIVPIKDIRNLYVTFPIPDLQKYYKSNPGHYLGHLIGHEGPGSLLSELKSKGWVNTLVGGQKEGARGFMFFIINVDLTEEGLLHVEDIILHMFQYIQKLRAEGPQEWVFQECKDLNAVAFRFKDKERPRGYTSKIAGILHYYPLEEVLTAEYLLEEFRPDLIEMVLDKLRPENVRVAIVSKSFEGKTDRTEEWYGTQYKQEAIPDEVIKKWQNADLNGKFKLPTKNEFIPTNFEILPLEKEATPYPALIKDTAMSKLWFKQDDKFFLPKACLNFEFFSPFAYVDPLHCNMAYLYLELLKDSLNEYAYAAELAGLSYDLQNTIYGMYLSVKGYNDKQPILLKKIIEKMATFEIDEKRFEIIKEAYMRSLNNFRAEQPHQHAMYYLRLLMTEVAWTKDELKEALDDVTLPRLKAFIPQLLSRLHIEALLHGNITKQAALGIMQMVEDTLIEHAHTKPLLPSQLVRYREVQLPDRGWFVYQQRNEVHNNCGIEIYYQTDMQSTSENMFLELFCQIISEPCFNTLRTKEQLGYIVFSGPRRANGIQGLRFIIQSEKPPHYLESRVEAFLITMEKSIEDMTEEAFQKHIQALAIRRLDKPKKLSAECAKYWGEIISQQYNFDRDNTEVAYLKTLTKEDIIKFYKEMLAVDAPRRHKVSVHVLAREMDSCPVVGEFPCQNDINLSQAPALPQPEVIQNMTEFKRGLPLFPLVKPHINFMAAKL
The experiment can be described thus: Dose Response: Fluorescence polarization-based cell-based high throughput dose response assay for inhibitors of insulin-degrading enzyme (IDE). [Related pubchem assays: 434962 (Primary screen (IDE inhibitors in singlicate)), 449730 (Counterscreen (Cytotoxicity in triplicate)), 435028 (Confirmation (IDE inhibitors in triplicate)), 434984 (Summary …. The format is functional.

The test system of experiment [4] is HEK293. The experiment can be described thus: Fluorescence-based counterscreen for potentiators or agonists of NPY-Y2: cell-based high-throughput dose response assay to identify inhibitors of cyclic nucleotide gated ion channel (CNGC) activity. In this assay, the parental HEK293 cell line transfected with a cyclic-nucleotide gated ion channel (CNGC)-based cAMP sensor is used to measure inhibition of isoproterenol-induced CNGC activity by test compound. As to conditions: Homo sapiens. The experiment is classed as functional. A general note: A counterscreen serves to expose hits that act by an unwanted route or on another target.

In experiment [5] the target is T2, Neuropeptide Y receptor type 2 (Homo sapiens, UniProt P49146).
T2 sequence (P49146 whole entry): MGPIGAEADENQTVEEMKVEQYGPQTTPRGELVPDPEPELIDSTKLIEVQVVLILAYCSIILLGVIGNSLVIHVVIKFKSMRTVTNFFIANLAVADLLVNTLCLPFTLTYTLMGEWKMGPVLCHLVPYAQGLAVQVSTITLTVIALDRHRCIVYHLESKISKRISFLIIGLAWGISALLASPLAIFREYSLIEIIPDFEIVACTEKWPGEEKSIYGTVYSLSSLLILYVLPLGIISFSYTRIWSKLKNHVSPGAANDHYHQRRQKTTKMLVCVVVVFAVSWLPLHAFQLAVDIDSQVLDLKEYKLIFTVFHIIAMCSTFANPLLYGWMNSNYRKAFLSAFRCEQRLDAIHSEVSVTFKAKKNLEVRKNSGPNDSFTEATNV
The experiment can be described thus: Fluorescence-based cell-based high-throughput dose response assay for agonists of NPY-Y2. [Related pubchem assays: 1703 (Screening assay (CNGC inhibitors).), 1359 (Screening assay (NPY-Y2 potentiators or agonists).), 1304 (Screening assay (NPY-Y1 potentiators or agonists).), 1710 (Screening assay (NPY-Y2 agonists).), 1791 (Summary AID.)]. The experiment is classed as functional.

For experiment [6], the target named is T3, Neuropeptide Y receptor type 1 (Homo sapiens, UniProt P25929).
T3 sequence (P25929 whole entry): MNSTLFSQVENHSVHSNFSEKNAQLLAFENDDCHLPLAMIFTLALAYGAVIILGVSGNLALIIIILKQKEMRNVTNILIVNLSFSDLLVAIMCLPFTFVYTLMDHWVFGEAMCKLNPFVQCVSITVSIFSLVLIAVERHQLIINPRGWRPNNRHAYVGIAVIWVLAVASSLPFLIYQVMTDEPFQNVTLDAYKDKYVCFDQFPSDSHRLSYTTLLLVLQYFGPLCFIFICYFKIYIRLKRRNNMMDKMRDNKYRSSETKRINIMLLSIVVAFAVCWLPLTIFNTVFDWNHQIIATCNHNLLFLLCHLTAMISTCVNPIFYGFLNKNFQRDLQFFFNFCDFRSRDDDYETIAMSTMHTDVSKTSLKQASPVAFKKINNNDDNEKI
The experiment can be described thus: Fluorescence-based counterscreen for agonists of NPY-Y2: cell-based high-throughput dose response assay for agonists of NPY-Y1. The format is functional.

The target in experiment [7] is Guanyl-specific ribonuclease T1 (Aspergillus oryzae (strain ATCC 42149 / RIB 40), UniProt P00651). The experiment can be described thus: inhibition of ribonuclease T1 activity – biochemical, fluorescence polarization, 1536-well, counter-screen for TPT1 inhibitor project, dose response (AID 2167).
For experiment [8], the target named is Likely tRNA 2'-phosphotransferase (Candida albicans (strain SC5314 / ATCC MYA-2876) (Yeast), UniProt Q5A7N4). The experiment can be described thus: inhibition of Candida TPT1 enzyme activity – biochemical, fluorescence polarization, dose response (AID 2160).
Experiment [9] concerns HEK293. The experiment can be described thus: cells. As to conditions: Homo sapiens.
Experiment [10] deals with Nucleotide-binding oligomerization domain-containing protein 2 (Homo sapiens, UniProt Q9HC29). The experiment can be described thus: PubChem AID 2334. The experiment is classed as functional.
The target of experiment [11] is T4, Nucleotide-binding oligomerization domain-containing protein 1 (Homo sapiens, UniProt Q9Y239).
T4 sequence (Q9Y239 whole entry): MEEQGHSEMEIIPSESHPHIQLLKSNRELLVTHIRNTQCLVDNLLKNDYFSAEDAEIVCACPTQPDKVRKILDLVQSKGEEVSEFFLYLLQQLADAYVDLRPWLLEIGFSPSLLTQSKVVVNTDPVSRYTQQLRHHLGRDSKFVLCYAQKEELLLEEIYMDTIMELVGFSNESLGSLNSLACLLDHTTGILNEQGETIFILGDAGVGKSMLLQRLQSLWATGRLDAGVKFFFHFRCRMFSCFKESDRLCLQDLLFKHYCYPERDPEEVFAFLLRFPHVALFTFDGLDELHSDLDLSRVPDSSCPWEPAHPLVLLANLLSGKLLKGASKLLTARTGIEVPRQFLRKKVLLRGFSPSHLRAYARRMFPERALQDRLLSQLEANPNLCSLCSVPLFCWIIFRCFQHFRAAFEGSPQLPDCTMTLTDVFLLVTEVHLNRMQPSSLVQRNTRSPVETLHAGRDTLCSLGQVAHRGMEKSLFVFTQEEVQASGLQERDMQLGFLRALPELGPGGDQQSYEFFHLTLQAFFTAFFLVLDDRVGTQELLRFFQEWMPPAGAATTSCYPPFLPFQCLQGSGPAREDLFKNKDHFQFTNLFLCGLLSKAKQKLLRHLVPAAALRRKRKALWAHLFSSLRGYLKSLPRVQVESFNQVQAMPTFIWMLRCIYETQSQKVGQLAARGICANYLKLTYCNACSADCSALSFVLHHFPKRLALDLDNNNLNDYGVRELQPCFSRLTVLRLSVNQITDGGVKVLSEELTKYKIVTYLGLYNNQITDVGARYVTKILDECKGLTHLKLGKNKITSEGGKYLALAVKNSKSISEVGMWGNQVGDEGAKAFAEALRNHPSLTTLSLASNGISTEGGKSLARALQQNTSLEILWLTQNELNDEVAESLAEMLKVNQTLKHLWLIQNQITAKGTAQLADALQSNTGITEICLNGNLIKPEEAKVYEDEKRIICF
The experiment can be described thus: blockers of NOD1 pathway activity – revised, SAR follow-up (AID 2333). The experiment is classed as functional.

The next experiment addresses Tumor necrosis factor (Homo sapiens, UniProt P01375). The experiment can be described thus: analog potency on TNFa NF-kB signaling – cell-based, revised, SAR follow-up (AID 2337). The experiment is classed as functional.
Experiment [12] deals with Polyadenylate-binding protein 1 (Homo sapiens, UniProt P11940). The experiment can be described thus: blockers of PABP interaction with poly(A) – biochemical, fluorescence polarization, […] (AID 2014). On the technique in general: Fluorescence polarisation rises when a labelled molecule tumbles more slowly, as on binding a larger partner.
Experiment [13] concerns the target Eukaryotic translation initiation factor 4H (Homo sapiens, UniProt Q15056). The experiment can be described thus: eIF4H binding inhibition – biochemical, uHTS, fluorescence polarization, translation initiation inhibitor project, primary screen (AID 2012).
Another experiment concerns the target X-box-binding protein 1 (Homo sapiens, UniProt P17861). The experiment is classed as functional, Cricetulus griseus.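 Also: confirmatory dose-response counter-screen serving a CHOP assay.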

Active and inactive are the calls of the source.

Polyadenylate-binding protein 1, sequence (P11940 whole entry): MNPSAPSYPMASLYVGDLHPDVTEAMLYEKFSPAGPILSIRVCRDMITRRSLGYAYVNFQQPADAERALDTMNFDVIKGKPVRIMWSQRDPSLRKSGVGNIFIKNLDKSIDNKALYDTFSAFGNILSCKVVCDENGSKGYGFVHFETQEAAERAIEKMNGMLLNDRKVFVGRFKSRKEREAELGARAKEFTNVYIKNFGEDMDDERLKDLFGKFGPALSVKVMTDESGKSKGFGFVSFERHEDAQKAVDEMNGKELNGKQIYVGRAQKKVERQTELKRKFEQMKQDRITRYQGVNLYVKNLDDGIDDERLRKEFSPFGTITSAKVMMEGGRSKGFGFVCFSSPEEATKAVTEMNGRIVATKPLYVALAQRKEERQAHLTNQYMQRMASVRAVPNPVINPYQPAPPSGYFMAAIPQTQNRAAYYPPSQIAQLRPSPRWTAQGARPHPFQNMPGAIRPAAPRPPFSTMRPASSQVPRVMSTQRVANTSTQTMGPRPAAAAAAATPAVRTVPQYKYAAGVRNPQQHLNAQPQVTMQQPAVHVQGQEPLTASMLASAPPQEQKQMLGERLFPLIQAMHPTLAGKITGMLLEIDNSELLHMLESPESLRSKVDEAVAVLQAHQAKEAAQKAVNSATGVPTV
Tumor necrosis factor, sequence (P01375 whole entry): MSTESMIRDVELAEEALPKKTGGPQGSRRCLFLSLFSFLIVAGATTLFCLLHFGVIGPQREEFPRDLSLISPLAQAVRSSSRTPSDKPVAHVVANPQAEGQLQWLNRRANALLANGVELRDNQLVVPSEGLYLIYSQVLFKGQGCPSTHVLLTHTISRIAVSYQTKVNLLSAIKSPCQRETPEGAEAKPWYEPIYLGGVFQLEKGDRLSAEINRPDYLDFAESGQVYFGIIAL
DNA dC->dU-editing enzyme APOBEC-3G, sequence (Q9HC16 whole entry): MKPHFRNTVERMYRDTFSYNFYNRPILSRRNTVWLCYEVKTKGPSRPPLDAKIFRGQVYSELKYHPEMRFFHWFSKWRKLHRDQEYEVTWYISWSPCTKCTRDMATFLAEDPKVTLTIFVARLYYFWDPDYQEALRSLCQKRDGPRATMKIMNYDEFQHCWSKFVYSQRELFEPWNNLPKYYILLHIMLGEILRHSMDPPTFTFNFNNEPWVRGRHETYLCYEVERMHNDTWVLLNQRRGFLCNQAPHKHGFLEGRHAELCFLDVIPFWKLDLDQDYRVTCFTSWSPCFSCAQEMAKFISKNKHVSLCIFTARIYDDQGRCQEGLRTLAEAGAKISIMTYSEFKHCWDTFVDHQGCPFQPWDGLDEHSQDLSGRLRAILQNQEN
Nucleotide-binding oligomerization domain-containing protein 2, sequence (Q9HC29 whole entry, the tested form may be a part): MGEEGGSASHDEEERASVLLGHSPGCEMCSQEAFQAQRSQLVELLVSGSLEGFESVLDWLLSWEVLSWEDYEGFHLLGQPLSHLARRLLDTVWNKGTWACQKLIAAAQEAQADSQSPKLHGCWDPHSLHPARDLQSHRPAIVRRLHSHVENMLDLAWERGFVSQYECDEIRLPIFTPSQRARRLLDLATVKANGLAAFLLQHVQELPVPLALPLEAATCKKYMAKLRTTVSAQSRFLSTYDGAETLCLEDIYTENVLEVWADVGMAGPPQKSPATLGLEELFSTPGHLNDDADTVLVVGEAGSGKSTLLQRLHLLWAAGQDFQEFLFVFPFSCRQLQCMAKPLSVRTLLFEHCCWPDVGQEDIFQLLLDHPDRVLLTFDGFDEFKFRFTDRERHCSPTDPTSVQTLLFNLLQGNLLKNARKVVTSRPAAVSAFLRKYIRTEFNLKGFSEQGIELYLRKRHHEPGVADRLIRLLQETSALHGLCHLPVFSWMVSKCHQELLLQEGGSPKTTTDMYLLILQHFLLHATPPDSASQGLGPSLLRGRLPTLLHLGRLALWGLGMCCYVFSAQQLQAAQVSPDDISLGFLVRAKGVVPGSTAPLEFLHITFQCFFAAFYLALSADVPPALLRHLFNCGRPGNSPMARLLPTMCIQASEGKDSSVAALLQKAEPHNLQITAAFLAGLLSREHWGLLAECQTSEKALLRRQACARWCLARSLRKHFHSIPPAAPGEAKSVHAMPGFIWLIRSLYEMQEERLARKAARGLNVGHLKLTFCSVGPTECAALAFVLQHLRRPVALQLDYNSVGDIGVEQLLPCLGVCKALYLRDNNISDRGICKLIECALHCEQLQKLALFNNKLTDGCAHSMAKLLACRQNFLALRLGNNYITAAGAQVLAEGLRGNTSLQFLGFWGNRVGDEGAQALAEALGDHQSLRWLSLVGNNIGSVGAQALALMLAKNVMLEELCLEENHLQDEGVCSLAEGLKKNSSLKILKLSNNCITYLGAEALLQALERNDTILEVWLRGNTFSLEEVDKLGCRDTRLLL
DNA dC->dU-editing enzyme APOBEC-3A, sequence (P31941 whole entry): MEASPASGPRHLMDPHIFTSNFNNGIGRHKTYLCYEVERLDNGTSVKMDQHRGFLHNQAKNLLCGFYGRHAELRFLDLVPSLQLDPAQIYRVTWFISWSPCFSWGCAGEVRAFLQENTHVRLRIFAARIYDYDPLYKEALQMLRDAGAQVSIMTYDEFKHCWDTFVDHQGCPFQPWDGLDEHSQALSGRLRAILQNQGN
Guanyl-specific ribonuclease T1, sequence (P00651 whole entry): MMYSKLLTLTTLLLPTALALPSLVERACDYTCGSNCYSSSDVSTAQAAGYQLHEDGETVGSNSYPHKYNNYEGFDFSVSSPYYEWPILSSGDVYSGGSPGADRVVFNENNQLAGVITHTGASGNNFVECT
Likely tRNA 2'-phosphotransferase, sequence (Q5A7N4 whole entry): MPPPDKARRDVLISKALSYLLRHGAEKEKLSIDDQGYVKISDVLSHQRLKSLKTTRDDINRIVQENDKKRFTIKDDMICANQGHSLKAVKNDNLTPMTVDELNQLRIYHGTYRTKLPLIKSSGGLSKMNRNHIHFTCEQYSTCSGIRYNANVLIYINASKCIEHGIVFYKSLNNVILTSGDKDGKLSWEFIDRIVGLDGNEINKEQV
X-box-binding protein 1, sequence (P17861 whole entry): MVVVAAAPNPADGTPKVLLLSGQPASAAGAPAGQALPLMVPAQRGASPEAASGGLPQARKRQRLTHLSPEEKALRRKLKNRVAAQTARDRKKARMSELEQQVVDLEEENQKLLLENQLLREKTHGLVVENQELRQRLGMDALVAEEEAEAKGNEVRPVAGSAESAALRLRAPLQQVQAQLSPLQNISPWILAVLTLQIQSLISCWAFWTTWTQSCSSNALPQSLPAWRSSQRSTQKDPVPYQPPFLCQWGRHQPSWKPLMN

Broadly, the IC50 is the midpoint of a concentration-inhibition curve. As to `CC[n+]1c(/C=C2/C=CN(CCCS(=O)(=O)[O-])c3ccccc32)sc2ccccc21`, the IC50 in experiment [1] is > 55.7 µM (not active); in experiment [2] it was 2.69 µM (active); in [3], 2.97 µM (active); on Insulin-degrading enzyme it was 12.3 µM (not active).

By EC50 is commonly meant the midpoint of the concentration-response curve. Take `COC(=O)c1ccc(NC(=O)CSc2nnc(C(C)NC(=O)c3ccccc3Cl)n2C)cc1` (stereo unspecified): the EC50 with HEK293 [4] is 12.7 µM (not active); in experiment [5], 19.8 µM (not active); in experiment [6], 26.4 µM (not active).

As for `Cc1ccc(N2C(=O)NC(=O)/C(=C\c3ccc([N+](=O)[O-])o3)C2=O)cc1`, the IC50 in experiment [7] was > 55.7 µM (not active); in experiment [8], 5.55 µM (active).

For `COC(=O)c1scc(S(=O)(=O)C(C)C)c1NN=C(C#N)C(=O)c1ccc(Cl)cc1`, the IC50 is > 20 µM (inactive) with HEK293 [9], 5.88 µM (active) in experiment [10], 5.43 µM (active) in experiment [11] and 10.9 µM (active) on Tumor necrosis factor.

For `CC[n+]1c(C)n(CC(O)COCC2CC=CCC2)c2ccccc21` (stereo unspecified), the IC50 was 2.12 µM (active) in experiment [2], 3.86 µM (active) in [3], 5.47 µM (active) in experiment [12] and 92.2 µM (active) in [13].

Consider `CC(C)(C)C(=O)N1CCN(c2ccnc3cc(Cl)ccc23)CC1`, for which the IC50 is reported as 20.8 µM (not active) in experiment [1] and 18.6 µM (not active) at Insulin-degrading enzyme.

Consider `C[N+]1(CCOS(=O)C23CC4CC(CC(C4)C2)C3)CCOCC1` (stereo unspecified), for which the IC50 in experiment [12] is 11.8 µM (active); in experiment [13], > 100 µM (inactive).

With `CCC(=O)N1CCc2cc(S(=O)(=O)N3CCN(c4ccc(C(C)=O)cc4)CC3)ccc21`, the IC50 (in the experiment with HEK293 [9]; in experiment [10]; in experiment [11]; on Tumor necrosis factor) was > 20 µM (inactive) in each case.

Consider `Oc1ccc(N=Nc2cccc(C(F)(F)F)c2)cc1/C=N/c1ccc(N2CCOCC2)cc1`, for which, on X-box-binding protein 1, the “Absolute IC50 (XBP1)” value amounted to 10 µM.
